According to patent US20230322745A1, “FUSED TRICYCLIC DERIVATIVE AND PHARMACEUTICAL APPLICATION THEREOF” (CHIA TAI TIANQING PHARMACEUTICAL GROUP CO., LTD., priority 2020, published 2023):
Structures can show the parent of a compound that is named as a salt. Where two headings read alike, the source gives them in different places.

Tests used:
M3 receptor = M3 receptor (Homo sapiens (Human), UniProt P20309); experiment: M3 receptor affinity test (3H-NMS competition); format: binding
Procedure: M3 receptor is a G protein-coupled receptor. In this experiment, the activity of test compounds against the M3 receptor in vitro was assayed by the competition of radioisotope labeled NMS and non-isotope labeled test compounds for an M3 binding site.
(§1) The experiment was performed by a radioisotope affinity assay. The M3 receptor membrane protein was prepared at 10 μg/mL by Biology Department of WuXi AppTec, and compounds were serially diluted in a 2.5-fold gradient in DMSO to obtain 10 concentrations. Radioisotope 3H-NMS was prepared at 0.2 nM in an assay buffer (10 mM HEPES, 1 mM MgCl2, pH 7.40). In formal testing, the experimental system comprising 1 of the test compound, 100 μL of M3 receptor membrane protein and 100 μL of radioisotope was shaken in a shaker at 300 RPM for 2 h at room temperature. A GF/C plate (Perkin Elmer, Cat No. 6055690) was prefoamed with 0.3% PEI, and the membrane proteins in the reaction solution were collected by filtration onto the GF/C plate. The signal values were read by a Perkin Elmer Microbeta2 instrument and the inhibition rate for each concentration point was shown as a percentage.

[1] = target: β2 receptor (cells expressing human ADRB2 gene) (Homo sapiens (Human), UniProt P07550); experiment: Agonistic effect on β2 receptor by HTRF cAMP method; format: cell-based
β2 receptor (cells expressing human ADRB2 gene), sequence (P07550 whole entry): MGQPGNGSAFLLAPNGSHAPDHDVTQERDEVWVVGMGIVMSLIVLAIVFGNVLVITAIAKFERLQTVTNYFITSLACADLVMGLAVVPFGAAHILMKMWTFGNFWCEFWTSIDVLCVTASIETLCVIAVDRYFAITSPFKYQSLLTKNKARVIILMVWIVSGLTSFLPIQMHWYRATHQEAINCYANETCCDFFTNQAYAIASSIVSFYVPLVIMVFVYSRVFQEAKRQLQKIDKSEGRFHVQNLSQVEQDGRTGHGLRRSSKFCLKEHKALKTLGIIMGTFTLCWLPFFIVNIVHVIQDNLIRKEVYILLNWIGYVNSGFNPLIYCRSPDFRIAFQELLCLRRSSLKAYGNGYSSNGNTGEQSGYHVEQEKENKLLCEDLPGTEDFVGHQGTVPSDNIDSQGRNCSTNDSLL
Procedure: (§2) β2 receptor is a G protein-coupled receptor, which is mainly coupled with Gs protein, and can activate adenylate cyclase activity through the Gs protein after being activated by binding to the ligand, thereby increasing the level of intracellular cAMP. In this experiment, the agonistic activity of the compounds against the β2 receptor in vitro was assayed by the cAMP kit.
(§3) β2 cells (expressing human ADRB2 gene) from ICE Bioscience Inc. were grown under standard conditions. The cells were collected and diluted with 1× Stimulation Buffer, and 9 μL of the cell dilution was added to a white low-volume 384-well plate with 1000 cells seeded in each well. Compounds were serially diluted in DMSO in a 5-fold gradient to obtain 10 concentrations. Before testing, compounds that had been serially diluted in DMSO were subjected to 100-fold dilution with 1× Stimulation Buffer to obtain compound working solutions. The concentration of the vehicle DMSO was 0.1%. Eu-cAMP and ULight™-anti-cAMP were diluted to the working concentration with Detection buffer. 5 μL of Eu-cAMP diluent and 5 μL of ULight™-anti-cAMP diluent were sequentially added into corresponding experiment wells. After 1 h of incubation at room temperature, readings at 665 nm and 620 nm were measured under the excitation wavelength of 330 nm using a Biotek microplate reader. The activity of the compounds was obtained by plotting through Ratio (665/620) against the concentration of the compounds, fitting the curve by a nonlinear regression method using GraphPad Prism 7 software and calculating EC50.

[2] = target: β1 receptor (cells expressing human ADRB1 gene) (Homo sapiens (Human), UniProt P08588); experiment: Agonistic effect on β1 receptor by HTRF cAMP method; format: cell-based
β1 receptor (cells expressing human ADRB1 gene), sequence (P08588 whole entry): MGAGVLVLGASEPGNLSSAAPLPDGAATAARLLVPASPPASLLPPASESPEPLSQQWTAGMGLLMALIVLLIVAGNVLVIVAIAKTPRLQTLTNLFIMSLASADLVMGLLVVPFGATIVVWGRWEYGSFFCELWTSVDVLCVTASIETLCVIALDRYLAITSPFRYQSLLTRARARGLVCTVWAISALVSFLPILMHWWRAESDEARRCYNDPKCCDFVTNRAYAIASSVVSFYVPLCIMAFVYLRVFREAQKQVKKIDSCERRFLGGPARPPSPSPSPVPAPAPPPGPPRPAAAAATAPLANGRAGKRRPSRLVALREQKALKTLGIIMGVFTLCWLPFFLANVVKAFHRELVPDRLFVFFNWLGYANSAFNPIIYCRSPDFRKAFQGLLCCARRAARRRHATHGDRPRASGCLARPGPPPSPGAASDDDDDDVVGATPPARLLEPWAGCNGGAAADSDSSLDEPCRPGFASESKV
Procedure: as §2, with “β1” for “β2”
as §3, with “β1” for “β2”, “ADRB1” for “ADRB2”, “4000” for “1000”

M2 receptor = M2 receptor (Homo sapiens (Human), UniProt P08172); experiment: M2 receptor affinity test (3H-NMS competition); format: binding
M2 receptor, sequence (P08172 whole entry): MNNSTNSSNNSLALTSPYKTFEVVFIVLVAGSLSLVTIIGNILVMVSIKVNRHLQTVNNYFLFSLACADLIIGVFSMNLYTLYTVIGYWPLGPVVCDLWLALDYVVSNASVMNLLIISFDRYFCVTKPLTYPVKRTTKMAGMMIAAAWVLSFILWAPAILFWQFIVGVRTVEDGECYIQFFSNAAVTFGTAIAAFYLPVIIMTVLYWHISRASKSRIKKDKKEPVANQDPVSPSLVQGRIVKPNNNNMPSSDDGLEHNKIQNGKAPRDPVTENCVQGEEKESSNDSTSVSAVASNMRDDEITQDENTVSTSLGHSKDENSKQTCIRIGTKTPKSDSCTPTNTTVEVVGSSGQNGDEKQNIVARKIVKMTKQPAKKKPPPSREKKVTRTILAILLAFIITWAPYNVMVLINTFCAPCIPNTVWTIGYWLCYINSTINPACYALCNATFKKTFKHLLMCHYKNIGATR
Procedure: M2 receptor is a G protein-coupled receptor. In this experiment, the activity of test compounds against the M2 receptor in vitro was assayed by the competition of radioisotope labeled NMS and non-isotope labeled test compounds for an M2 binding site.
as §1, with “The M2 receptor membrane” for “The experiment was performed by a radioisotope affinity assay. The M3 receptor membrane”, “prepared at 100 μg/mL by” for “prepared at 10 μg/mL by”, “comprising 1 μL of the” for “comprising 1 of the”, “μL of M2 receptor membrane” for “μL of M3 receptor membrane”

[3] = Pharmacokinetic evaluation in SD rats; format: in vivo; settings: male, rat, plasma; for clearance / AUC / half-life: 10% aqueous HPβCD; for clearance: read-out: Clearance rate for administration by intravenous injection; for bioavailability: intra-tracheal 5 mpk vs intravenous 2 mpk, read-out: Bioavailability F for intra-tracheal administration with a nebulizer needle; for half-life: read-out: Half life T1/2 for intra-tracheal administration with a nebulizer needle (converted)
Procedure: To test pharmacokinetics of test compounds in SD rats
SD rats (male, 200-250 g, 7-9 weeks old, Beijing Vital River Laboratory Animal Technology Co., Ltd.)
A formulation containing 10% aqueous HPβCD solution as a vehicle was administered by intravenous injection (2 mpk), and a formulation containing 10% aqueous HPβCD solution as a vehicle was administered by intra-tracheal administration (5 mpk) with a nebulizer needle. Before the animal experiment, all animals were fed normally; and all animals were given free access to water. Blood collection time points were as follows: intravenous administration group: 0.083 h, 0.25 h, 0.5 h, 1 h, 2 h, 4 h, 8 h, and 24 h; nebulizer needle administration group: 0.083 h, 0.25 h, 0.5 h, 1 h, 2 h, 4 h, 8 h, and 24 h.
Whole blood samples (0.25 mL) were collected via the jugular vein (or other suitable collection site) at prescribed time points, and all blood samples were added to labeled plastic centrifuge tubes containing a K2-EDTA anticoagulant. After blood collection, plasma was separated by centrifugation and placed in dry ice rapidly, and the samples were stored at low temperature. All samples were analyzed by LC-MS/MS with a limit of detection of 4 nM. The mean concentration of plasma was processed using a non-compartmental model of the pharmacokinetic software WinNonlin™ Version 6.3 (Pharsight, Mountain View, CA), and pharmacokinetic parameters were calculated by a linear log-trapezoidal method.

[4] = read-out: IC50, activity against the M3 receptor in vitro
[5] = HTRF cAMP, 1 h incubation at room temperature, read-out: EC50, agonistic activity against the β2 receptor in vitro
[6] = 2 mg/kg, intravenous injection 2 mpk
[7] = 2 mg/kg, intravenous injection 2 mpk, read-out: Concentration integration AUC for administration by intravenous injection
[8] = inhaled or intranasal, 5 mg/kg, intra-tracheal 5 mpk, read-out: Concentration integration AUC for intra-tracheal administration with a nebulizer needle
[9] = inhaled or intranasal, 5 mg/kg, intra-tracheal 5 mpk

M3 receptor, sequence (P20309 whole entry): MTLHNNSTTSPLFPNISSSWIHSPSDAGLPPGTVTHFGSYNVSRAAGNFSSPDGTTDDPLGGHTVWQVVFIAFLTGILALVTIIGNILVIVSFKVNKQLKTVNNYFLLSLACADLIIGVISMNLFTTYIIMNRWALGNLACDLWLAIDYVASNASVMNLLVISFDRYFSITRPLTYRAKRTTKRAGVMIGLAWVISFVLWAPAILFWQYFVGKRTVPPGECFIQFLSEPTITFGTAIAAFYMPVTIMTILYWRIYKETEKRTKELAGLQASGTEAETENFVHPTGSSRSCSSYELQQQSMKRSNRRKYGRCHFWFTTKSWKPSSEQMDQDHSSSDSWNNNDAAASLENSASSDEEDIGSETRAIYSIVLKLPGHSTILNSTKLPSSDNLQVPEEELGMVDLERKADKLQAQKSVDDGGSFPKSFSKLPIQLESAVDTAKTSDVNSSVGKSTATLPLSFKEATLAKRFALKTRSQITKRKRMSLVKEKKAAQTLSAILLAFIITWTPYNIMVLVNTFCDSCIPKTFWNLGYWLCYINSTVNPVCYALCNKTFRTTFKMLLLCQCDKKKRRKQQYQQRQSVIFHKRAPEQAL

In the case of Cn1ncc2c(CNC[C@H](O)c3ccc(O)c4[nH]c(=O)ccc34)cc3nnn(CCCN(C)[C@H]4CC[C@H](OC(=O)C(O)(c5cccs5)c5cccs5)CC4)c3c21 [Compound 11], the IC50 (M3 receptor; [4]) is reported as 0.638 nM, the EC50 [1, 5] is reported as 1.12 nM and the EC50 [2] is reported as 33.7 nM.

O=C(OC1CC2(C1)CN(CCCn1nnc3cc(CNC[C@H](O)c4ccc(O)c5[nH]c(=O)ccc45)c4c(c31)CCC4)C2)C(O)(c1cccs1)c1cccs1 [Formate salt of compound 2] gave an IC50 (M3 receptor; [4]) of 0.347 nM, an EC50 [1, 5] of 0.889 nM and an EC50 [2] of 157 nM.

O=C(OC1CCC2(CC1)CN(CCCn1nnc3cc(CNC[C@H](O)c4ccc(O)c5[nH]c(=O)ccc45)c4c(c31)CCC4)C2)C(O)(c1cccs1)c1cccs1 [Formate salt of compound 4] gave an IC50 (M3 receptor; [4]) of 0.343 nM, an EC50 [1, 5] of 2.15 nM and an EC50 [2] of 304 nM.

In the case of CN(CCCn1nnc2cc(CNC[C@H](O)c3ccc(O)c4[nH]c(=O)ccc34)c3c(c21)OCCO3)[C@H]1CC[C@H](OC(=O)C(O)(c2cccs2)c2cccs2)CC1 [Formate salt of compound 12], the EC50 [1, 5] is reported as 2.04 nM and the EC50 [2] is reported as 127 nM.

With O=C(OC1CC2(CCN(CCCn3nnc4cc(CNC[C@H](O)c5ccc(O)c6[nH]c(=O)ccc56)c5c(c43)CCC5)CC2)C1)C(O)(c1ccc(Cl)s1)c1ccc(Cl)s1 [Formate salt of compound 19] the IC50 (M3 receptor; [4]) was 0.281 nM, the EC50 [1, 5] was 5.14 nM and the EC50 [2] was 1440 nM.

For O=C(OCC1(O)CCN(CCCn2nnc3cc(CNC[C@H](O)c4ccc(O)c5[nH]c(=O)ccc45)c4c(c32)CCC4)CC1)C(O)(c1cccs1)c1cccs1 [Formate salt of compound 31], the IC50 (M3 receptor; [4]) was 0.655 nM.

Cc1ccc(C(O)(C(=O)C[C@H]2CC[C@H](N(C)CCCn3nnc4cc(CNC[C@H](O)c5ccc(O)c6[nH]c(=O)ccc56)c5c(c43)CCC5)CC2)c2ccc(C)s2)s1 [Formate salt of compound 32] showed an IC50 (M3 receptor; 0.2 nM 3H-NMS, M3 receptor membrane protein, 2 h at room temperature, read-out: IC50, activity against the M3 receptor in vitro) of 1.2 nM, an EC50 [1, 5] of 1.57 nM and an IC50 (M2 receptor; 0.2 nM 3H-NMS, M2 receptor membrane protein, 2 h at room temperature, read-out: IC50, activity against the M2 receptor in vitro) of 0.814 nM. For the same molecule, the EC50 ([2]; HTRF cAMP, 1 h incubation at room temperature, read-out: EC50, agonistic activity against the β1 receptor in vitro) was 145 nM.

In the case of CN(CCCn1nnc2cc(CNC[C@H](O)c3ccc(O)c4[nH]c(=O)ccc34)c3c(c21)OCO3)[C@H]1CC[C@H](OC(=O)C(O)(c2cccs2)c2cccs2)CC1 [Formate salt of compound 33], the IC50 (M3 receptor) is reported as 0.494 nM, the EC50 [1] is reported as 0.742 nM and the IC50 (M2 receptor) is reported as 0.153 nM. The EC50 [2] was 53.1 nM.

For CN(CCCn1nnc2cc(CNC[C@H](O)c3ccc(O)c4[nH]c(=O)ccc34)c3c(c21)COC3)[C@H]1CC[C@H](OC(=O)C(O)(c2cccs2)c2cccs2)CC1 [Formate salt of compound 40], the IC50 (M3 receptor) was 0.363 nM, the EC50 [1] was 2.8 nM and the IC50 (M2 receptor) was 0.228 nM. For the same molecule, the EC50 [2] was 56.7 nM.

In the case of CN(CCCn1cnc2cc(CNC[C@H](O)c3ccc(O)c4[nH]c(=O)ccc34)c3c(c21)CCC3)[C@H]1CC[C@H](OC(=O)C(O)(c2cccs2)c2cccs2)CC1 [Formate salt of compound 41], the IC50 (M3 receptor) is reported as 0.201 nM, the EC50 [1] is reported as 13.8 nM and the IC50 (M2 receptor) is reported as 0.268 nM. The EC50 [2] was 229 nM.

With C[N+]1(CCCn2nnc3cc(CNC[C@H](O)c4ccc(O)c5[nH]c(=O)ccc45)c4c(c32)CCC4)CCC(OC(=O)C(O)(c2cccs2)c2cccs2)CC1 (stereo partly shown) [Hydrobromide salt of compound 30] the EC50 [2] was 94.9 nM.

In the case of CN(CCCn1nnc2cc(CNC[C@H](O)c3ccc(O)c4[nH]c(=O)ccc34)ccc21)[C@H]1CC[C@H](OC(=O)C(O)(c2cccs2)c2cccs2)CC1 [Hydrofluoride salt of AZD8871, reference compound], the clearance [3, 6] is reported as 35 mL/min/kg, the AUC [3, 7] is reported as 1.27 µM·h and the bioavailability ([3]; inhaled or intranasal, 5 mg/kg) is reported as 76.7%. The AUC [3, 8] was 2.44 µM·h and the half-life [3, 9] was 30.9 min.

With CN(CCCn1nnc2cc(CNC[C@H](O)c3ccc(O)c4[nH]c(=O)ccc34)c3c(c21)CCC3)[C@H]1CC[C@H](OC(=O)C(O)(c2cccs2)c2cccs2)CC1 [Trifluoroacetate salt of compound 1] the IC50 (M3 receptor; [4]) was 0.384 nM, the clearance [3, 6] was 62.8 mL/min/kg and the AUC [3, 7] was 0.681 µM·h. The bioavailability ([3]; inhaled or intranasal, 5 mg/kg) was 153%, the AUC [3, 8] was 2.61 µM·h and the half-life [3, 9] was 82.8 min. It also gave an EC50 [1, 5] of 3.47 nM, an IC50 (M2 receptor) of 0.062 nM and an EC50 [2] of 84.5 nM.

CN(CCCn1nnc2cc(CNC[C@H](O)c3ccc(O)c4[nH]c(=O)ccc34)c3c(c21)CCC3)[C@H]1CC[C@H](OC(=O)C(O)(c2ccc(Cl)s2)c2ccc(Cl)s2)CC1 [Trifluoroacetate salt of compound 10] showed an IC50 (M3 receptor; [4]) of 1.27 nM, an EC50 [1, 5] of 1.36 nM and an EC50 [2] of 269 nM.
